Reference: US20160081935A1, “DOSAGE FORMS FOR ORAL ADMINISTRATION OF ACTIVE SUBSTANCES” (GIULIANI S.P.A., priority 2013, published 2016)
Converted amounts (≈) assume the structure as drawn. Where two headings read alike, the source gives them in different places. Values belong to the molecule of their own block, whether it stands above or below them.

Experiments:
[1] = cited from earlier work
[2] = Hydrophilicity-lipophilicity index for the active ingredient in single dose (Ip.a.), calculation method; conditions: for Ip.a.: scale 0-20
Source text: Where Ip.a. means the hydrophilicity-lipophilicity index for the active ingredient in single dose.
Coefficient X is equal to the solubility of the active ingredient S (mg/liter) divided by the amount of active ingredient expressed in mg per single dose (mg/dose).
A substance that is miscible in any ratio with water has an infinite water solubility, in such case considering a substance as the solute and the other as the solvent may be meaningless. Therefore, in this condition use of the above equation, which presents a horizontal asymptote, is not necessarily required. Instead, the value 20 on the scale of hydrophilicity lipophilicity is arbitrarily assigned, while the value 0, or better tending to 0, is attributed to substances considered insoluble in water.
In the case of molecules considered insoluble, the value on the solubility index scale will tend to zero, and therefore, the scale can be considered for convenience between the values 0-20.

[3] = Solubility of active ingredients in water; type: physicochemical; conditions: for Solubility: 20 °C
Source text: The solubility (S) of a solute is the maximum amount of solute that dissolves in a fixed amount of a particular solvent at a specified temperature.

[4] = mg per 1000 ml of water at 20° C.-25° C., 0.00001 used for practically insoluble substances

Molecule: CS(C)(=O)=O [Dimethyl sulfone]
- Solubility ([1]; at 25° C.): 150 g/L at
- S [1, 4]: 150000 mg/L
- X = (mg/l)/(mg/dose) ([2]; dose 500 mg): 300 (mg/l)/(mg/dose)
- Ip.a. ([2]; dose 500 mg): 20

- X = (mg/l)/(mg/dose) ([2]; dose 300 mg): 160 (mg/l)/(mg/dose)
- Ip.a. ([2]; dose 300 mg): 20
Molecule: CSCC[C@H](N)C(=O)O [L-Methionine]
- Solubility ([1]; at 293 K): 48 g/l at 293 K
- S [1, 4]: 48000 mg/L

Molecule: Cc1cc2nc3c(=O)[nH]c(=O)nc-3n(C[C@H](O)[C@H](O)[C@H](O)CO)c2cc1C [Riboflavin (form A), Riboflavin]
- Solubility ([1]; volume of water that dissolves 1 g, varies with crystal form): 1 g/3-15 L **

- Solubility ([3]; riboflavin form B, in water): 80 µg/mL (≈ 213 µM)
- S ([3]; riboflavin form B): 80 mg/L
Molecule: Cc1cc2nc3c(=O)[nH]c(=O)nc-3n(C[C@H](O)[C@H](O)[C@H](O)CO)c2cc1C [Riboflavin (form B), Riboflavin]

- Solubility ([3]; deduced experimentally): ~80 µg/mL (≈ 213 µM)
Molecule: Cc1cc2nc3c(=O)[nH]c(=O)nc-3n(C[C@H](O)[C@H](O)[C@H](O)CO)c2cc1C [Riboflavin]
- Solubility ([1]; 1 g in this volume, depending on the crystalline form, Merck Index): 3 to 15 L

- X = (mg/l)/(mg/dose) ([2]; dose 10 mg): 0.000001 (mg/l)/(mg/dose)
- Ip.a. ([2]; dose 10 mg): 0.00000
Molecule: COC1=C(OC)C(=O)C(C/C=C(\C)CC/C=C(\C)CC/C=C(\C)CC/C=C(\C)CC/C=C(\C)CC/C=C(\C)CC/C=C(\C)CC/C=C(\C)CC/C=C(\C)CCC=C(C)C)=C(C)C1=O [Ubidecarenone]
- Solubility ([1]; in water, in words): practically insoluble in water
- S [1, 4]: 0.00001 mg/L

Molecule: Oc1ccc(C=Cc2cc(O)cc(O)c2)cc1 [resveratrol]
- Solubility ([1]; in water): 0.003 g in 100 ml

- X = (mg/l)/(mg/dose) ([2]; dose 45.3 mg): 10 (mg/l)/(mg/dose)
- Ip.a. ([2]; dose 45.3 mg): 20
- X = (mg/l)/(mg/dose) ([2]; dose 453.0 mg): 1 (mg/l)/(mg/dose)
- Ip.a. ([2]; dose 453.0 mg): 19.62
- X = (mg/l)/(mg/dose) ([2]; dose 498.3 mg): 0.9091 (mg/l)/(mg/dose)
- Ip.a. ([2]; dose 498.3 mg): 16.85
- X = (mg/l)/(mg/dose) ([2]; dose 543.6 mg): 0.8333 (mg/l)/(mg/dose)
- Ip.a. ([2]; dose 543.6 mg): 5.858
- X = (mg/l)/(mg/dose) ([2]; dose 588.9 mg): 0.7692 (mg/l)/(mg/dose)
- Ip.a. ([2]; dose 588.9 mg): 0.7258
- X = (mg/l)/(mg/dose) ([2]; dose 634.2 mg): 0.7143 (mg/l)/(mg/dose)
- Ip.a. ([2]; dose 634.2 mg): 0.08114
Molecule: N[C@@H](Cc1ccc(O)cc1)C(=O)O [tyrosine]
- S ([1]; 25° C.): 453 mg/L

- X = (mg/l)/(mg/dose) ([2]; dose 0.1 mg): 0.0001 (mg/l)/(mg/dose)
- Ip.a. ([2]; dose 0.1 mg): 0.00000
Molecule: Vitamin A
- Solubility ([1]; in water, in words): practically insoluble in water
- S [1, 4]: 0.00001 mg/L

- X = (mg/l)/(mg/dose) ([2]; dose 10 mg): 0.000001 (mg/l)/(mg/dose)
- Ip.a. ([2]; dose 10 mg): 0.00000
Molecule: Vitamin E
- Solubility ([1]; in water, in words): practically insoluble in water
- S [1, 4]: 0.00001 mg/L
